Laboratory results published in patent US20170015555A1, “LONG-TERM PRESERVATION AND NOVEL APPLICATION OF CHLOROUS ACID AQUEOUS SOLUTION FORMULATION” (priority 2013, published 2017).

Tests used:
Type in all cases: cell-based
[1] = tested on: E. coli: Escherichia coli IF03927; assay: Sterilizing effect on floor surface after wiping off imitation vomit, carpet; details: 1000 ppm available chlorine
From the text: (§1) 1) Chlorous acid aqueous solution formulation (see Example 1: Table 11) Treatment sheet (material: 100% cotton): (about 27×40 cm) *Impregnated at a ratio of weight of treatment sheet (g): amount of liquid (ml)=1:3 2) Imitation vomit Miso solution: adjusted to pH of 2 with hydrochloric acid 3) Test Microbes that were Used E. coli: Escherichia coli IF03927 Staphylococcus aureus: Staphylococcus aureus IF0 12732 Thermoduric Microbes (Bacillus cereus): Bacillus cereus NBRC15305 Microbes of the genus Salmonella: Salmonella Enteritidis IF03313 Enterohemorrhagic Escherichia coli O157: Escherichia coli O157 Enterohemorrhagic Escherichia coli O111: Escherichia coli O111 Enterohemorrhagic Escherichia coli O26: Escherichia coli O26
(§2) (1) Imitation vomit was spread in an area about the size of an A4 sheet. (2) 5 dry sheets were laid thereon. (3) An agent solution was poured on the dry sheets to wipe off the imitation vomit. (4) A cotton swab was soaked with sterile saline. A portion where imitation vomit was spread was scrubbed with the cotton swab to collect microbes remaining on the floor. After suspending in saline, the solution was spread on a petri dish and cultured. The number of each of the microbes was measured. (5) Test operations 3 and 4 were repeated a total of 7 times (repeated until the imitation vomit could be removed completely).

[2] = tested on: Enterohemorrhagic Escherichia coli O111; assay: as above
From the text: as §1, §2

[3] = tested on: Enterohemorrhagic Escherichia coli O157; assay: as above; details: 1000 ppm available chlorine
From the text: as §1, §2

[4] = tested on: Enterohemorrhagic Escherichia coli O26; assay: as above; details: 1000 ppm available chlorine
From the text: as §1, §2

[5] = tested on: Staphylococcus aureus IF0 12732; assay: as above; details: 1000 ppm available chlorine
From the text: as §1, §2

[6] = tested on: Bacillus cereus NBRC15305; assay: as above
From the text: as §1, §2

pathogenic microbes = assay: Sterilizing effect on floor surface when treating vomit, summary over all tested microbes and floors
From the text: as §1
(1) Imitation vomit was spread in an area about the size of an A4 sheet. (2) 5 agent solution-containing treatment sheets were laid thereon. (3) The imitation vomit was wiped off. (4) A cotton swab was soaked with sterile saline. A portion where imitation vomit was spread was scrubbed with the cotton swab to collect microbes remaining on the floor. After suspending in saline, the solution was spread on a petri dish and cultured. The number of each of the microbes was measured. […]
(1) Imitation vomit was spread in an area about the size of an A4 sheet. […] The number of each of the microbes was measured. […]

[7] = tested on: E. coli: Escherichia coli IF03927; assay: Sterilizing effect on floor surface after wiping off imitation vomit, rubber mattress; details: 1000 ppm available chlorine
From the text: as §1
as §2, with “agent solution-containing treatment” for “dry”, “The imitation vomit” for “An agent solution”, “wiped off.” for “poured on the dry sheets to wipe off the imitation vomit.”

[8] = tested on: Enterohemorrhagic Escherichia coli O111; assay: as above
From the text: as §1
as §2, with “agent solution-containing treatment” for “dry”, “The imitation vomit” for “An agent solution”, “wiped off.” for “poured on the dry sheets to wipe off the imitation vomit.”

[9] = tested on: Enterohemorrhagic Escherichia coli O157; assay: as above; details: 1000 ppm available chlorine
From the text: as §1
as §2, with “agent solution-containing treatment” for “dry”, “The imitation vomit” for “An agent solution”, “wiped off.” for “poured on the dry sheets to wipe off the imitation vomit.”

[10] = tested on: Microbes of the genus Salmonella: Salmonella Enteritidis IF03313; assay: as above; details: 1000 ppm available chlorine
From the text: as §1
as §2, with “agent solution-containing treatment” for “dry”, “The imitation vomit” for “An agent solution”, “wiped off.” for “poured on the dry sheets to wipe off the imitation vomit.”

[11] = tested on: Enterohemorrhagic Escherichia coli O26; assay: as above; details: 1000 ppm available chlorine
From the text: as §1
as §2, with “agent solution-containing treatment” for “dry”, “The imitation vomit” for “An agent solution”, “wiped off.” for “poured on the dry sheets to wipe off the imitation vomit.”

[12] = tested on: Staphylococcus aureus IF0 12732; assay: as above; details: 1000 ppm available chlorine
From the text: as §1
as §2, with “agent solution-containing treatment” for “dry”, “The imitation vomit” for “An agent solution”, “wiped off.” for “poured on the dry sheets to wipe off the imitation vomit.”

[13] = tested on: Bacillus cereus NBRC15305; assay: as above; details: 1000 ppm available chlorine
From the text: as §1
as §2, with “agent solution-containing treatment” for “dry”, “The imitation vomit” for “An agent solution”, “wiped off.” for “poured on the dry sheets to wipe off the imitation vomit.”

[14] = stored at 25° C. Day 0, 1000 ppm
[15] = stored at 25° C. Day 7, Sodium Hypochlorite, 0 ppm
[16] = stored at 25° C. Day 0, 1000 ppm available chlorine
[17] = 1000 ppm available chlorine, stored at 25° C. Day 0
[18] = 1000 ppm, stored at 25° C. Day 7

## OCl [Sodium Hypochlorite, sodium hypochlorite]
[1]; stored at 25° C. Day 0
  Number of Times Wiped 1 Time (remaining microbes): <10
  Number of Times Wiped 2 Times (remaining microbes): <10
  Number of Times Wiped 3 Times (remaining microbes): <10
[1]; stored at 25° C. Day 7
  Number of Times Wiped 1 Time (remaining microbes): <10
  Number of Times Wiped 2 Times (remaining microbes): <10
  Number of Times Wiped 3 Times (remaining microbes): <10
[2]; [14]
  Number of Times Wiped 1 Time (remaining microbes): <10
  Number of Times Wiped 2 Times (remaining microbes): <10
  Number of Times Wiped 3 Times (remaining microbes): <10
[2]; [15]
  Number of Times Wiped 1 Time (remaining microbes): 2.3 × 10^3
  Number of Times Wiped 2 Times (remaining microbes): 1.9 × 10^3
  Number of Times Wiped 3 Times (remaining microbes): 1.1 × 10^3
[3]; stored at 25° C. Day 0
  Number of Times Wiped 1 Time (remaining microbes): <10
  Number of Times Wiped 2 Times (remaining microbes): <10
  Number of Times Wiped 3 Times (remaining microbes): <10
[3]; stored at 25° C. Day 7
  Number of Times Wiped 1 Time (remaining microbes): <10
  Number of Times Wiped 2 Times (remaining microbes): <10
  Number of Times Wiped 3 Times (remaining microbes): <10
[4]; Day 0 at 25° C.
  Microbes remaining on floor surface, wiped 1 Time: <10
  Microbes remaining on floor surface, wiped 2 Times: <10
  Microbes remaining on floor surface, wiped 3 Times: <10
[4]; Day 7 at 25° C.
  Microbes remaining on floor surface, wiped 1 Time: 8.8 × 10^3
  Microbes remaining on floor surface, wiped 2 Times: 4.9 × 10^3
  Microbes remaining on floor surface, wiped 3 Times: 3.0 × 10^3
[5]; stored at 25° C. Day 0
  Number of Times Wiped 1 Time (remaining microbes): <10
  Number of Times Wiped 2 Times (remaining microbes): <10
  Number of Times Wiped 3 Times (remaining microbes): <10
[5]; stored at 25° C. Day 7
  Number of Times Wiped 1 Time (remaining microbes): <10
  Number of Times Wiped 2 Times (remaining microbes): <10
  Number of Times Wiped 3 Times (remaining microbes): <10
[6]; [16]
  Number of Times Wiped 1 Time (remaining microbes): <10
  Number of Times Wiped 2 Times (remaining microbes): <10
  Number of Times Wiped 3 Times (remaining microbes): <10
[6]; [15]
  Number of Times Wiped 1 Time (remaining microbes): 6.7 × 10^3
  Number of Times Wiped 2 Times (remaining microbes): 5.2 × 10^3
  Number of Times Wiped 3 Times (remaining microbes): 4.9 × 10^3
  Number of Times Wiped 7 Times (remaining microbes): 2.0 × 10^3
Pathogenic microbes; day 0
  sterilization of pathogenic microbes on floor surface by wiping: could be sterilized
Pathogenic microbes; preserved for 7 days
  sterilization of pathogenic microbes on floor surface by wiping: there were cases in which pathogenic microbes could not be sterilized
[7]; Day 0 at 25° C.
  Microbe count on floor, wiped 1 Time: <10
  Microbe count on floor, wiped 2 Times: <10
  Microbe count on floor, wiped 3 Times: <10
[7]; Day 7 at 25° C.
  Microbe count on floor, wiped 1 Time: 2.3 × 10^4
  Microbe count on floor, wiped 2 Times: 7.8 × 10^3
  Microbe count on floor, wiped 3 Times: 2.1 × 10^3
[8]; [17]
  microbes remaining, wiped 1 Time: <10
  microbes remaining, wiped 2 Times: <10
  microbes remaining, wiped 3 Times: <10
[8]; [18]
  microbes remaining, wiped 1 Time: 1.5 × 10^3
  microbes remaining, wiped 2 Times: 1.0 × 10^3
  microbes remaining, wiped 3 Times: 2.6 × 10^2
  microbes remaining, wiped 7 Times: <10
[9]; stored at 25° C. Day 0
  microbes remaining, wiped 1 Time: <10
  microbes remaining, wiped 2 Times: <10
  microbes remaining, wiped 3 Times: <10
[9]; stored at 25° C. Day 7
  microbes remaining, wiped 1 Time: 4.2 × 10^3
  microbes remaining, wiped 2 Times: 1.2 × 10^3
  microbes remaining, wiped 3 Times: 1.1 × 10^2
[10]; stored at 25° C. Day 0
  microbes remaining, wiped 1 Time: <10
  microbes remaining, wiped 2 Times: <10
  microbes remaining, wiped 3 Times: <10
[10]; stored at 25° C. Day 7
  microbes remaining, wiped 1 Time: 1.1 × 10^3
  microbes remaining, wiped 2 Times: 3.6 × 10^2
[11]; stored at 25° C. Day 0
  microbes remaining, wiped 1 Time: <10
  microbes remaining, wiped 2 Times: <10
  microbes remaining, wiped 3 Times: <10
[11]; stored at 25° C. Day 7
  microbes remaining, wiped 1 Time: 3.2 × 10^3
  microbes remaining, wiped 2 Times: 1.0 × 10^3
  microbes remaining, wiped 3 Times: 3.0 × 10^2
[12]; Day 0 at 25° C.
  Microbe count on floor, wiped 1 Time: <10
  Microbe count on floor, wiped 2 Times: <10
  Microbe count on floor, wiped 3 Times: <10
[12]; Day 7 at 25° C.
  Microbe count on floor, wiped 1 Time: 8.7 × 10^6
  Microbe count on floor, wiped 2 Times: 7.3 × 10^3
  Microbe count on floor, wiped 3 Times: 3.3 × 10^3
[13]; stored at 25° C. Day 0
  microbes remaining, wiped 1 Time: <10
  microbes remaining, wiped 2 Times: <10
  microbes remaining, wiped 3 Times: <10
[13]; stored at 25° C. Day 7
  microbes remaining, wiped 1 Time: 2.1 × 10^3
  microbes remaining, wiped 2 Times: 6.5 × 10^2
  microbes remaining, wiped 3 Times: 1.8 × 10^2
